Test results: patent US7589173B2, “Methods for diagnosing cancer and decreasing metastasis by cancer cells” (The Scripps Research Institute, priority 2003, dated 2009)

System: SIMA135 tyrosine phosphorylation
Conditions: PP2 50 μM, 30 minutes at 37° C, serum free DMEM
Protocol: Cell lysates, serum free conditioned media and immunoprecipitated proteins were separated by electrophoresis through 8% SDS-polyacrylamide gels then transferred to nitrocellulose membranes (Millipore). […] Following extensive washing membranes were incubated for 2 hr at room temperature with goat anti-mouse IgG (0.16 μg/ml, Pierce, Rockford, Il) and immunoreactive bands detected by enhanced chemiluminescence (Pierce).
For analysis of the basal level of tyrosine phosphorylation of SIMA135, subconfluent cultures of HEp3 and HeLa (as negative control) cells were incubated at 37° C. for 30 min with serum free DMEM containing 50 mM NaF and 1 mM Na3VO4 then washed with ice cold PBS. For inhibition of Src kinase family phosphorylation, HEp3 cells were cultured in serum free DMEM without NaF and Na3VO4 for 30 minutes at 37° C. with PP2 (50 μM). Cells were then lysed in ice cold buffer containing 50 mM Tris (pH 7.4), 150 mM NaCl, 1% Triton X-100, 1 mM phenylmethylsulfonyl fluoride, 1 mM benzamidine, 25 μg/ml aprotinin, 25 μg/ml leupeptin, 50 mM NaF and 1 mM Na3VO4. Insoluble material was removed by centrifugation at 14000 rpm for 10 min. […] Cells lysates were collected as described above.

CC(C)(C)n1nc(-c2ccc(Cl)cc2)c2c(N)ncnc21 [PP2]
reduction in the level of SIMA135 tyrosine phosphorylation compared to untreated HEp3 cells: ~75%
